In patent publication US20230108270A1, “STABILIZATION OF COMPOUNDS AS CYCLODEXTRIN COMPLEXES” (University of Pittsburgh - Of the Commonwealth System of …, priority 2020, published 2023):

Test: Stability of NO2-OA/β-cyclodextrin inclusion complex resuspended in water
Type: physicochemical
Method: An important consideration when working with nitroalkene fatty acids is their high sensitivity to water or humidity. […] Stability was compared with the total amount added to the aqueous solution.
These stability assays were performed at room temperature and data was similar between the two tested concentrations of 0.31 mg/ml and 1.95 mg/ml. […] A new equilibrium is rapidly achieved and the sample is stable after this initial decay.

Compound: CCCCCCCCC(=CCCCCCCCC(=O)O)[N+](=O)[O-] [NO2-OA, 10-nitro-octadec-9-enoic acid]
- time to complete decomposition of NO2-OA in water (NO2-OA added to water without cyclodextrin): ≤ 4 h
- time to loss of 10-NO2-OA in solution (same molar amount of 10-NO2-OA added to water): ≤ 4 hrs
